Consider 16 compounds from article PMC3963473, “Structure–Activity Relationship Studies of Pyrrolone Antimalarial Agents” (Chemmedchem, 2013).

Molecules are shown by their SMILES. In brackets after ≈: the same amount, converted by molar mass. Where two headings read alike, the source gives them in different places.

Data set [1] can be described thus: Aqueous solubility estimated by nephelometry. The following applies: kinetic from dmso stock. In kind it is physicochemical. Here is the method: III. Physicochemical Evaluation […]
Solubility Estimation: Aqueous solubility was estimated by nephelometry.
Compound in DMSO was spiked into either water, pH 6.5 phosphate buffer or 0.01N HCl
(approx. pH 2.0) with the final DMSO concentration being 1%. Samples were then
analyzed by Nephelometry to determine the solubility range as described previously.1

Another data set has as its system L6 cells. The data set is described as follows: In vitro cytotoxicity assay in L6 cells (Alamar Blue). In kind it is cell-based. Particulars: Rattus norvegicus, mean of two independent assays, read-out: EC50 L6 cells. Here is the method:
(§1) V. Design and Results of the in vitro & in vivo Studies.
A. Drug inhibition of in vitro cultured P. falciparum parasite:2 All in vitro assays were carried out twice independently. In vitro activity against the erythrocytic stages of P. […]
B. In vitro cytotoxicity assay:2 Assays were performed in 96-well microtiter plates, each […]
mM) and 10% fetal bovine serum, and 4 x 10^4 L-6 cells (a primary cell line derived from rat skeletal myoblasts). Serial drug dilutions of seven 3-fold dilution steps covering a range […]
After 72 h of incubation the plates were inspected […]
of Alamar Blue was then added to each well and the plates incubated for another 2 h.
Then the plates were read with a Spectramax Gemini XS microplate fluorometer (Molecular Devices Cooperation, Sunnyvale, CA, USA) using an excitation wave length of […]
Data were analysed using the microplate reader software Softmax Pro (Molecular Devices Cooperation, Sunnyvale, CA, USA).
Background: The colour change of resazurin is a common sign of viable cells or microbes.

For the next data set, the system named is Plasmodium falciparum K1. The data set can be described thus: microbe, parasite or virus in culture. Particulars: for EC50: Plasmodium falciparum, K1, read-out: EC50 P. falc. In kind it is cell-based. Here is the method: as §1
A. Drug inhibition of in vitro cultured P. falciparum parasite:2 All in vitro assays were carried out twice independently. In vitro activity against the erythrocytic stages of P. falciparum was determined by using a 3H-hypoxanthine incorporation assay,5-6 using the […]
were dissolved in DMSO at 10 mg/mL and added to parasite cultures incubated in RPMI […]
haematocrit (0.3% parasitaemia). Serial doubling dilutions of each drug were prepared in […]
After 48 h, 50 µL of 3H-hypoxanthine (= 0.5 µCi) was added to each well of the plate. The plates were incubated for an additional 24 h under the same conditions. The plates were then harvested with a Betaplate cell harvester (Wallac, Zurich, Switzerland), and the red blood cells were transferred onto a glass fiber filter and then washed with distilled water. The dried filters were inserted into a plastic foil with 10 mL of scintillation fluid and were counted in a Betaplate™ liquid scintillation counter (Wallac, Zurich, […]

Data set [2] relates to green fluorescent protein (GFP)-transfected Plasmodium berghei ANKA. In kind it is in vivo. Particulars: for [%] Reduction parasitaemia: mice, 10 % DMSO in water; for Survival: in vivo. Here is the method:
In vivo efficacy studies: The protocols are described in the Supporting Information. In vivo efficacy studies in mice were conducted at the Swiss Tropical & Public Health Institute (Basel, Switzerland) according to the rules and regulations for the protection of animal rights (“Tierschutzverordnung”) of the Swiss “Bundesamt für Veterinärwesen”. They were approved by the veterinary office of Canton Basel-Stadt, Switzerland.
C. In vivo antimalarial efficacy studies (4 days treatment).2
In vivo antimalarial activity was assessed basically as previously described. Groups of […]
erythrocytes on day 0 with GFP-transfected P. berghei strain ANKA. .Unless otherwise indicated compounds were formulated in 100% DMSO, diluted 10-fold in distilled water and administered intraperitoneally or orally in a volume of 10 mL kg-1 on four consecutive days (4, 24, 48 and 72 h post infection). Parasitemia was determined on day 4 post infection (24 h after last treatment) by FACS analysis. Activity was calculated as the difference between the mean per cent parasitaemia for the control (n=5 mice) and treated groups expressed as a per cent relative to the control group. The survival time in days was also recorded up to 30 days after infection. A compound was considered curative if the animal survived to day 30 after infection with no detectable parasites. All protocols and procedures used in the current study were reviewed and approved by the local veterinary authorities of the Canton Basel-Stadt.

Another data set has as its system Plasmodium berghei. Also on record: method as in PMID 23517371. Particulars: P. berghei mouse model; dosed intraperitoneally; cited from earlier work.
Where [3] appears, read: aqueous buffer, pH 6.5 phosphate buffer, nephelometry, 1% DMSO, read-out: Solubility pH 6.5.
Setting [4] is: Table 1, water, nephelometry, 1% DMSO, read-out: Solubility water.
Setting [5] is: simulated gastric fluid, pH 2.0 (0.01N HCl), nephelometry, 1% DMSO, read-out: Solubility pH 2.0.
[6] abbreviates: Table 1, A-ring variants, mammalian L6 cells.
Where [7] appears, read: Table 2, water, read-out: Solubility water.
Setting [8] is: Table 2, C-ring variants, L6 cells.

As a reminder, the solubility is how much of the substance goes into solution per volume. The melting point is the temperature of the solid-liquid transition. As usually defined, the EC50 is the midpoint of the concentration-response curve. In turn, `CCOC(=O)C1=C(C)N/C(=C/c2cc(C)n(C3CCN(Cc4ccccc4)CC3)c2C)C1=O` [Compound 17, (E)-Ethyl 5-((1-(1-benzylpiperidin-4-yl)-2,5-dimethyl-1H-pyrrol-3-yl)methylene)-2-methyl-4-oxo-4,5-dihydro-1H-pyrrole-3-carboxylate] returned a melting point of 150 to 155 °C. Besides, the solubility in data set [1] (setting [3]) is 14 to 28 µM (≈ 6.27 to 12.5 µg/mL). For the same compound, the solubility in data set [1] (setting [4]) was above 125 µM. Also, the solubility in data set [1] (setting [5]) is 56 to 110 µM (≈ 25.1 to 49.2 µg/mL). Also, the EC50 with L6 cells (setting [6]) was determined as 20 µM. The EC50 with Plasmodium falciparum K1 is 35 nM.
Turning to `CCOC(=O)C1=C(C)N/C(=C/c2cc(C)n(C3CCN(CC)CC3)c2C)C1=O` [Compound 20], the melting point was 140 to 145 °C. For the same compound, the solubility in data set [1] (setting [3]) was above 250 µM. The solubility in data set [1] (setting [5]) is above 250 µM. For the same compound, the EC50 in the data set on L6 cells (setting [6]) came to 7.6 µM. For the same compound, the 50% effective concentration (EC50) in the data set on Plasmodium falciparum K1 is 2400 nM.
`CCOC(=O)C1=C(C)N/C(=C/c2cc(C)n(C3CCN(c4ccc(C(F)(F)F)cc4)CC3)c2C)C1=O` [Compound 30] had a melting point of 153 to 158 °C. For the same compound, the solubility in data set [1] (setting [4]) is above 125 µM. Further, in the data set with L6 cells (setting [6]), the EC50 worked out at 10 µM. Besides, the EC50 in the data set on Plasmodium falciparum K1 came to 24 nM.
`CCOC(=O)C1=C(C)N/C(=C/c2cc(C)n(C3CCN(C(C)c4ccccc4C(F)(F)F)CC3)c2C)C1=O` (stereo not shown) [Compound 36] came in with a melting point of 138 to 142 °C. For the same compound, the solubility in data set [1] (setting [4]) was above 125 µM. Besides, the EC50 with L6 cells (setting [6]) is 3 µM. Also, the EC50 in the data set on Plasmodium falciparum K1 amounted to 1 nM.
With `CCOC(=O)C1=C(C)N/C(=C/c2cc(C)n(C3CCN(CC4CCCCC4)CC3)c2C)C1=O` [Compound 40], the melting point is 184 to 186 °C. Besides, the solubility in data set [1] (setting [4]) was above 125 µM. Further, the concentration giving a half-maximal response (EC50) in the data set with L6 cells (setting [6]) is 13 µM. Besides, the EC50 in the data set with Plasmodium falciparum K1 stood at 16 nM.
Consider `CCOC(=O)C1=C(C)N/C(=C/c2cc(C)n(C3CCN(Cc4ccc(C(F)(F)F)nc4)CC3)c2C)C1=O` [Compound 43], for which the solubility in data set [1] (setting [4]) is above 125 µM. The “[%] Reduction parasitaemia” value in data set [2] (50 mg kg^−1 day^−1 ip) is 10.0%; in data set [2] (100 mg kg^−1 day^−1 po), 0.0%. Moreover, the “activity in vivo (in words)” value in data set [2] (50 mg/kg ip and 100 mg/kg po) is “failed to show significant activity in vivo”. Besides, the Survival in data set [2] (ip) and in data set [2] (po) was 4 days in each case. For the same compound, the results for the EC50 in the data set with L6 cells (setting [6]) and in the data set on Plasmodium falciparum K1 were 49 µM and 4 nM, respectively.
For the compound `CCOC(=O)C1=C(C)N/C(=C/c2cc(C)n(C3CCN(Cc4ccc(F)cc4C(F)(F)F)CC3)c2C)C1=O` [Compound 44], the melting point is 145 to 148 °C. Further, the solubility in data set [1] (setting [4]) was above 125 µM. Further, the EC50 in the data set with L6 cells (setting [6]) stood at 1.2 µM. Further, in the data set with Plasmodium falciparum K1, the EC50 came to 0.4 nM. The “EC50 (P. falciparum K1)” value with Plasmodium falciparum K1 (values in nM) was “sub-nanomolar”.
Regarding `CCOC(=O)C1=C(C)N/C(=C/c2cc(C)n(C3CCN(Cc4cocn4)CC3)c2C)C1=O` [Compound 48], the melting point lay in the range of 180 to 182 °C. Further, the solubility in data set [1] (setting [4]) was above 125 µM. Besides, in the data set on L6 cells (setting [6]), the EC50 was determined as 0.16 µM. Moreover, in the data set on Plasmodium falciparum K1, the EC50 is 18 nM.
With `CCOC(=O)C1=C(C)N/C(=C/c2cc(C)n(C3CCN(Cc4ccc(-c5noc(C)n5)cc4)CC3)c2C)C1=O` [Compound 51], the melting point was in the range of 195 to 200 °C. The solubility in data set [1] (setting [4]) was above 125 µM. Further, the EC50 in the data set on L6 cells (setting [6]) was found to be 11 µM. The EC50 in the data set with Plasmodium falciparum K1 stood at 1 nM.
For `CCOC(=O)C1=C(/C=C/N(C)C)N/C(=C/c2cc(C)n(-c3ccccc3C(F)(F)F)c2C)C1=O` [Compound 55, (E)-Ethyl 5-((2,5-dimethyl-1-(2-(trifluoromethyl)phenyl)-1H-pyrrol-3-yl)methylene)-2-((E)-2-(dimethylamino)vinyl)-4-oxo-4,5-dihydro-1H-pyrrole-3-carboxylate], the solubility in data set [1] (setting [7]) was above 125 µM. The EC50 in the data set with L6 cells (setting [8]) was determined as 56 µM; in the data set on Plasmodium falciparum K1 it was 61 nM.
Consider `Cc1cc(/C=C2/Nc3cc[nH]c(=O)c3C2=O)c(C)n1-c1ccccc1C(F)(F)F` [Compound 56], for which the solubility in data set [1] (setting [7]) was above 125 µM. In addition, the entries for the “[%] Reduction parasitaemia” value in data set [2] (50 mg kg^−1 day^−1 ip) and in data set [2] (100 mg kg^−1 day^−1 po) were 21.8% and 13.6%, respectively. For the same compound, the Survival in data set [2] (ip) and in data set [2] (po) was 4 days each time. Besides, the 50% effective concentration (EC50) came to 54 µM with L6 cells (setting [8]) and 47 nM in the data set on Plasmodium falciparum K1.
For the compound `Cc1cc(/C=C2/Nc3ccn(C)c(=O)c3C2=O)c(C)n1-c1ccccc1C(F)(F)F` [Compound 57], the solubility in data set [1] (setting [7]) was above 125 µM. For the same compound, the “[%] Reduction parasitaemia” value was determined as 99.9% in data set [2] (50 mg kg^−1 day^−1 ip) and 50.5% in data set [2] (100 mg kg^−1 day^−1 po). This compound gave a Survival in data set [2] (po) of 8 days. Also, the EC50 with L6 cells (setting [8]) is 29 µM; with Plasmodium falciparum K1, 14 nM.
The compound `CCn1ccc2c(c1=O)C(=O)/C(=C\c1cc(C)n(-c3ccccc3C(F)(F)F)c1C)N2` [Compound 58] registered a melting point of 204 to 205 °C. The solubility in data set [1] (setting [7]) was above 125 µM. The EC50 in the data set with L6 cells (setting [8]) was determined as 36 µM. The half-maximal effective concentration (EC50) in the data set with Plasmodium falciparum K1 came to 21 nM.
`Cc1cc(/C=C2/Nc3ccn(Cc4ccc(C(F)(F)F)cc4)c(=O)c3C2=O)c(C)n1-c1ccccc1C(F)(F)F` [Compound 63] showed a melting point of 235 to 240 °C. For the same compound, the solubility in data set [1] (setting [7]) was 89 µM (≈ 49.6 µg/mL). Also, the EC50 with L6 cells (setting [8]) worked out at 54 µM. Moreover, in the data set with Plasmodium falciparum K1, the 50% effective concentration (EC50) is 46 nM.
On the same counts, the results for `Cc1cc(/C=C2/Nc3ccn(Cc4ccncc4)c(=O)c3C2=O)c(C)n1-c1ccccc1C(F)(F)F` [Compound 64] are 215 to 240 °C, above 125 µM, 38 µM and 77 nM.
As to `CCOC(=O)C1=C(C)N/C(=C/c2cc(C)n(-c3ccccc3C(F)(F)F)c2C)C1=O` [TDR32750], the depression of parasitaemia in the data set on Plasmodium berghei is above 99%.
